{"source": "patent US20080051454A1", "about": "“Compositions and methods for transient receptor potential vanilloid (TRPV) channel mediated treatments” (The Board of Trustees Operating Michigan State University, priority 2006, published 2008)", "test_system": "Wistar rats fed a NS or HS diet for 10 days", "experiment": "MAP responses to i.v. capsaicin with or without CAPZ in urethane-anesthetized rats", "type": "in vivo, rat", "procedure": "Surgical Preparation Rats were anesthetized with ketamine and xylazine (80 and 4 mg/kg intraperitoneally, respectively) for cannulation or with urethane (1.5 g/kg intraperitoneally) for capsaicin administration. The left jugular vein, carotid and femoral artery were cannulated under anesthesia for injection of drugs or monitoring of mean arterial pressure (MAP) and heart rate (HR).\nEach dose of injection was separated by a 30-minute interval. To determine the specificity of capsaicin, CAPZ (3 mg/kg) was administered 10 minutes before capsaicin injection in a separate group."}
{"smiles": "Oc1cc2c(cc1O)CN(C(=S)NCCc1ccc(Cl)cc1)CCC2", "note": "[CAPZ, N-[2-(4-Chlorophenyl)ethyl]-1,3,4,5-tetrahydro-7,8-dihydroxy-2H-2-benzazepine-2-carbothioamide]", "values": [{"measurement": "capsaicin-induced decrease in MAP after CAPZ", "setting": "CAPZ 3 mg/kg before capsaicin 10 μg/kg, HS", "result": "4±1", "unit": "mmHg"}, {"measurement": "capsaicin-induced decrease in MAP after CAPZ", "setting": "CAPZ 3 mg/kg before capsaicin 10 μg/kg, NS", "result": "4±1", "unit": "mmHg"}, {"measurement": "capsaicin-induced decrease in MAP after CAPZ", "setting": "CAPZ 3 mg/kg before capsaicin 30 μg/kg, HS", "result": "6±2", "unit": "mmHg"}, {"measurement": "capsaicin-induced decrease in MAP after CAPZ", "setting": "CAPZ 3 mg/kg before capsaicin 30 μg/kg, NS", "result": "5±1", "unit": "mmHg"}]}
